Assay results: patent US9006255B2, “Quinazoline derivatives” (Merck Patent GmbH, priority 2010, dated 2015)

Tests used:
[1] = molecular target: DNA-PK protein complex (Homo sapiens, UniProt P78527); assay: DNA-PK kinase assay (FlashPlate, 33P-ATP); type: biochemical; settings: biotin-DNA-PK peptide substrate, 5 μM ATP, 90 minutes at room temperature
Procedure: Description of the Method for the Testing of DNA-PK Inhibitors
The kinase assay is carried out in […] microtitre FlashPlates®, coated with streptavidin. 1.5 μg of the DNA-PK protein complex and […] of biotinylated substrate, for example PESQEAFADLWKK biotin-NH2 (“biotin-DNA-PK peptide”) in a total volume of 36.5 μl (34.25 mM Hepes/KOH, 7.85 mM Tris-HCl, 68.5 mM KCl, 5 μM ATP, 6.85 mM MgCl2, 0.5 mM EDTA, 0.14 mM EGTA, 0.69 mM DTT, pH 7.4), are incubated at room temperature for 90 minutes with or without test substance in a well containing 500 ng of DNA from calf thymus, 0.1 μCi of 33P-ATP and 1.8% of DMSO. The reaction is stopped by addition of 50 μl/well of 200 mM EDTA. After incubation for 30 minutes, the liquids are removed at room temperature. Each well is washed three times with 100 μl of 0.9% NaCl solution. Non-specific reaction (blank) is determined using a proprietary kinase inhibitor (10 μM). The radioactivity is measured by means of a Topcount. IC50 values calculated in RS1. Literature: Molecular Cancer Therapeutics 2003, 1257-1264; DNA-dependent protein kinase inhibitors as drug candidates for the treatment of cancer; A. Kashishian, H. Douangpanya, D. Clark, S. T. Schlachter, C. Todd Eary, J. G. Schiro, H. Huang, L. E. Burgess, E. A. Kesicki, and J. Halbrook.

[2] = tested on: PI3K; assay: Cellular testing of PI3K inhibitors: P-S473-PKB Luminex assay in PC3 cells; type: cell-based; settings: phosphorylation of PKB at Serin 473, 30 min incubation, serum-free
Procedure: Description of the Method for the Cellular Testing of PI3K Inhibitors The measure used for the cellular PI3K activity is the PI3K-dependent phosphorylation of PKB at Serin 473. The cellular assay for determination of the P-S473-PKB level is carried out as a Luminex assay in 96-well format in PC3 cells. […] PC3 cells are sown out with 20,000 cells per well in 100 μl medium (45% RPMI1460/45% Ham's F12/10% FCS) and incubated on the following day for 30 min with a serial dilution of the test substance (7 concentrations) under serum-free conditions. The cells are subsequently lysed using 90 μl of lysis buffer (20 mM Tris/HCl pH 8.0, 150 mM NaCl, 1% NP40, 10% glycerol, 1% phosphatase inhibitor I, 1% phosphatase inhibitor II, 0.1% protease inhibitor cocktail III, 0.01% benzonase) per well, and the lysates are separated off from insoluble cell constituents by means of centrifugation through a 96-well filter plate (0.65 μm). The lysates are incubated overnight at 4° C. with shaking with Luminex beads to which an anti-total PKB antibody is coupled. The detection is carried out on the following day by addition of a P-S473-PKB antibody and a species-specific PE-labelled secondary antibody. The detection of P-S473-PKB is carried out by measurement in a Luminex100 instrument by determination of 100 events per cavity in a measurement time of 60 sec. As pharmacological blank, the signals obtained from cells which have been treated with 3 μM wortmannin are subtracted from all other preparations. The control value used for maximum phosphorylation of PKB at S473 are the signals from cells which have been treated only with the solvent (0.3% DMSO). The values of the preparations treated with test substance are calculated from this as percent of control, and IC50 values are determined by means of RS1.

Row | Structure (SMILES) | IC50 [1] [nM] | IC50 [2] [nM]
1 | c1ccc2c(c1)CCN2c1ncnc2ccc(-c3cnc4[nH]ccc4c3)cc12 [Compound A1, 4-(2,3-dihydroindol-1-yl)-6-(1H-pyrrolo[2,3-b]pyridin-5-yl)quinazoline] | 1 to 100 | 100 to 10000
2 | c1ccc2c(c1)CN(c1ncnc3ccc(-c4cnc5[nH]ccc5c4)cc13)C2 [Compound A2, 4-(1,3-dihydroisoindol-2-yl)-6-(1H-pyrrolo[2,3-b]pyridin-5-yl)quinazoline] | 1 to 100 | 100 to 10000
3 | Cc1nc2cc(-c3ccc4ncnc(N5CCOc6ccccc65)c4c3)cnc2[nH]1 [Compound A12, 4-[6-(2-methyl-3H-imidazo[4,5-b]pyridin-6-yl)quinazolin-4-yl]-3,4-dihydro-2H-benzo-1,4-oxazine] | 1 to 100 | 100 to 10000
4 | Cc1nc2cc(-c3ccc4ncnc(N5CCc6ccccc6C5)c4n3)cnc2[nH]1 [Compound A8, 4-(3,4-dihydro-1H-isoquinolin-2-yl)-6-(2-methyl-3H-imidazo[4,5-b]pyridin-6-yl)-pyrido[3,2-d]pyrimidine] | 1 to 100 | 1 to 100
5 | COc1ccc2c(c1)CN(c1ncnc3ccc(-c4cnc5[nH]c(C)nc5c4)cc13)CC2 [Compound A11, 4-(7-methoxy-3,4-dihydro-1H-isoquinolin-2-yl)-6-(2-methyl-3H-imidazo[4,5-b]pyridin-6-yl)quinazoline] | 1 to 100 | 1 to 100
6 | Cc1nc2cc(-c3ccc4ncnc(N5CCCc6ccccc65)c4c3)cnc2[nH]1 [Compound A5, 4-(3,4-dihydro-2H-quinolin-1-yl)-6-(2-methyl-3H-imidazo-[4,5-b]pyridin-6-yl)quinazoline] | 1 to 100 | 100 to 10000
7 | Cc1nc2cc(-c3ccc4ncnc(N5CCC(=O)c6ccccc65)c4c3)cnc2[nH]1 [Compound A13, 1-[6-(2-methyl-3H-imidazo[4,5-b]pyridin-6-yl)quinazolin-4-yl]-2,3-dihydro-1H-quinolin-4-one] | 1 to 100 | 100 to 10000
8 | COc1cc2c(cc1OC)CN(c1ncnc3ccc(-c4cnc5[nH]ccc5c4)nc13)CC2 [Compound A7, 4-(6,7-dimethoxy-3,4-dihydro-1H-isoquinolin-2-yl)-6-(1H-pyrrolo[2,3-b]pyridin-5-yl)pyrido[3,2-d]pyrimidine] | 1 to 100 | 
9 | c1ccc2c(c1)CCN(c1ncnc3ccc(-c4cnc5[nH]ccc5c4)nc13)C2 [Compound A6, 4-(3,4-dihydro-1H-isoquinolin-2-yl)-6-(1H-pyrrolo[2,3-b]pyridin-5-yl)pyrido[3,2-d]pyrimidine] | 1 to 100 | 100 to 10000
10 | c1ccc2c(c1)CCCN2c1ncnc2ccc(-c3cnc4[nH]ccc4c3)cc12 [Compound A3, 4-(3,4-dihydro-2H-quinolin-1-yl)-6-(1H-pyrrolo[2,3-b]pyridin-5-yl)quinazoline] | 1 to 100 | 100 to 10000
11 | COc1cc2c(cc1OC)CN(c1ncnc3ccc(-c4cnc5[nH]c(C)nc5c4)nc13)CC2 [Compound A9, 4-(6,7-dimethoxy-3,4-dihydro-1H-isoquinolin-2-yl)-6-(2-methyl-3H-imidazo[4,5-b]pyridin-6-yl)pyrido[3,2-d]pyrimidine] | 1 to 100 | 1 to 100
12 | CCc1nc2cc(-c3ccc4ncnc(N5CCc6ccccc6C5)c4c3)cnc2[nH]1 [Compound A10, 4-(3,4-dihydro-1H-isoquinolin-2-yl)-6-(2-ethyl-3H-imidazo[4,5-b]pyridin-6-yl)quinazoline] | 1 to 100 | 1 to 100
13 | Cc1nc2cc(-c3ccc4ncnc(N5CCc6ccccc6C5)c4c3)cnc2[nH]1 [Compound A4, 4-(3,4-dihydro-1H-isoquinolin-2-yl)-6-(2-methyl-3H-imidazo[4,5-b]pyridin-6-yl)quinazoline] | 1 to 100 | 1 to 100
